Test results reported in article PMC4728508 (Marine Drugs, 2016).

How the values were obtained:
human α3β2 nAChR = human α3β2 nAChR (Homo sapiens, UniProt P17787+P32297); assay type: cell-based
rat α3β2 nAChR = rat α3β2 nAChR (Rattus norvegicus, UniProt P04757+P12390); assay type: cell-based
Kunming mice = details: mouse, in vivo, sc

Sequence of human α3β2 nAChR (P32297 32-505 limits assumed): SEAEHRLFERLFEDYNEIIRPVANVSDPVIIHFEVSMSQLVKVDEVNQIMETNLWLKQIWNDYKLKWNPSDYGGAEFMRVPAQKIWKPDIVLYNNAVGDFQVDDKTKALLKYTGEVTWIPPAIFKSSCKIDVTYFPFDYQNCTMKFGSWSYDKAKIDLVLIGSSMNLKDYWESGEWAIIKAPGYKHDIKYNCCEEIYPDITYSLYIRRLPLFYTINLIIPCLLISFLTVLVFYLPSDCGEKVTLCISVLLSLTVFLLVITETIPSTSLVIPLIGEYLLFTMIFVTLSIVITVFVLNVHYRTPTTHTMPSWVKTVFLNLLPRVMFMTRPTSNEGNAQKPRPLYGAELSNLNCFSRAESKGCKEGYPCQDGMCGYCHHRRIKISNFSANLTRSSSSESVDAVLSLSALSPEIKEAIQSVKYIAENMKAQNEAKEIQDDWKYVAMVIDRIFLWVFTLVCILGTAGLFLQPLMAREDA
Sequence of human α3β2 nAChR (P17787 26-502 limits assumed): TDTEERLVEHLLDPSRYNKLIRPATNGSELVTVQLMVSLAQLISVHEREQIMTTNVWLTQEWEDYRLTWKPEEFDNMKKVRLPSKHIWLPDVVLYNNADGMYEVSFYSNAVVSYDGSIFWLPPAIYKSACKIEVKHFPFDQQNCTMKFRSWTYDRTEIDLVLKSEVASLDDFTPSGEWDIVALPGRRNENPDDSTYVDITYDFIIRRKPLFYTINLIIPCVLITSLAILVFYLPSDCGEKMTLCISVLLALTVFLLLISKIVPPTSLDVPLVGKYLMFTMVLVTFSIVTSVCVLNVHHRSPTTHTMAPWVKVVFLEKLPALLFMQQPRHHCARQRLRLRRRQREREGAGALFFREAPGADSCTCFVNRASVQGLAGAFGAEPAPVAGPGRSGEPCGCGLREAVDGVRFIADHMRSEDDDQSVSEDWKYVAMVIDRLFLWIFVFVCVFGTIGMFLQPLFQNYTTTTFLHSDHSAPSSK
Sequence of rat α3β2 nAChR (P04757 26-499 limits assumed): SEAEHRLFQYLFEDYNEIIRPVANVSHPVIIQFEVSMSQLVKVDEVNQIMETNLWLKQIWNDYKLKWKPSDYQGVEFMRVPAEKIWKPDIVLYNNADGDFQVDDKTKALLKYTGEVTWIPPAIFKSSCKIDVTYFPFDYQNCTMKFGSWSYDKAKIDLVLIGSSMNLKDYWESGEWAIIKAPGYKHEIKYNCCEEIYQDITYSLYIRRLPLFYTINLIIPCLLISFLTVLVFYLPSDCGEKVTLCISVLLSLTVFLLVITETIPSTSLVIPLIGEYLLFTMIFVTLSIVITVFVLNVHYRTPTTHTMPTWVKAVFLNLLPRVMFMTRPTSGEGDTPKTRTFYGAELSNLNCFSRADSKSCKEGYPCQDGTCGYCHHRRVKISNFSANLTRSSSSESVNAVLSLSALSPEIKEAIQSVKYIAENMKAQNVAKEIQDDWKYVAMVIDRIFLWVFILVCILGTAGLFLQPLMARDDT
Sequence of rat α3β2 nAChR (P12390 25-500 limits assumed): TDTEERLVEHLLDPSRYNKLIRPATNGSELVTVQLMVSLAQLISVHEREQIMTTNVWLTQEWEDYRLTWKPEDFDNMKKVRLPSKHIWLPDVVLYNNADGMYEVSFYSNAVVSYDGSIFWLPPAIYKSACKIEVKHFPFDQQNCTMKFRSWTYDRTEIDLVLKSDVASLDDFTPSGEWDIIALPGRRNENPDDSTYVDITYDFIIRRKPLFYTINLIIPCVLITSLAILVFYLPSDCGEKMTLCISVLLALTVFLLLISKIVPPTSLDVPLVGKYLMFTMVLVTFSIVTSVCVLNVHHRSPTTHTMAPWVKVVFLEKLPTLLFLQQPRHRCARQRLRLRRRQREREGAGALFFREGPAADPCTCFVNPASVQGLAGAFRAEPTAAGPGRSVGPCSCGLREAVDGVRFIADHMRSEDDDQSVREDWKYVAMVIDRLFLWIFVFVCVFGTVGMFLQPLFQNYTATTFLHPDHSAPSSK

| Compound | loss of potency versus native LvIA (human α3β2 nAChR) [fold] | loss of potency versus native LvIA (rat α3β2 nAChR) [fold] | latency to thermal stimulus (Kunming mice) |
| --- | --- | --- | --- |
| CC[C@H](C)[C@@H]1NC(=O)[C@H](CCC(=O)O)NC(=O)[C@@H]2CCCN2C(=O)[C@H](Cc2c[nH]cn2)NC(=O)[C@H](CC(=O)O)NC(=O)[C@H](C(C)C)NC(=O)[C@H](CC(N)=O)NC(=O)[C@@H]2CSSC[C@H](NC(=O)CNC(=O)[C@@H](N)CCSC)C(=O)N[C@@H](CSSC[C@@H](C(=O)O)NC1=O)C(=O)N[C@@H](CO)C(=O)N[C@@H](Cc1c[nH]cn1)C(=O)N1CCC[C@H]1C(=O)N[C@@H](C)C(=O)N2 [rLvIA] | 2.7 | 18.5 | – |
| CN1CC[C@]23c4c5ccc(O)c4O[C@H]2[C@@H](O)C=C[C@H]3[C@H]1C5 [Morphine] | – | – | highest latency |
